The NIST ThermoML archive (doi:10.1016/j.jct.2013.10.031)
± gives the expanded uncertainty stated by the source.

Conditions: for mass density: Gas, Burnett expansion method; for vapor or sublimation pressure: Liquid, Closed cell (Static) method

`N#N` [nitrogen] showed a mass density (322.97 K, 845.67 kPa) of 8.818 ± 0.22 kg/m3, a mass density (322.97 K, 1127.1 kPa) of 11.749 ± 0.23 kg/m3 and a mass density (322.97 K, 2004.5 kPa) of 20.889 ± 0.27 kg/m3. The mass density (322.98 K, 634.95 kPa) was 6.619 ± 0.21 kg/m3 and the mass density (322.98 K, 1502.9 kPa) was 15.668 ± 0.24 kg/m3.
With `CCC` [propane] the “vapor or sublimation pressure” value (252.1 K) was 236 ± 20 kPa, the “vapor or sublimation pressure” value (256.21 K) was 273.3 ± 20 kPa and the “vapor or sublimation pressure” value (260.1 K) was 311.1 ± 20 kPa. For the same molecule, the “vapor or sublimation pressure” value (264.21 K) was 358.7 ± 20 kPa, the “vapor or sublimation pressure” value (268.09 K) was 406 ± 20 kPa and the “vapor or sublimation pressure” value (272.13 K) was 460.2 ± 20 kPa. For the same molecule, the “vapor or sublimation pressure” value (276.14 K) was 519.7 ± 20 kPa, the “vapor or sublimation pressure” value (280.21 K) was 585.8 ± 20 kPa and the “vapor or sublimation pressure” value (284.09 K) was 653.2 ± 20 kPa. For the same molecule, the “vapor or sublimation pressure” value (288.1 K) was 731.4 ± 20 kPa, the “vapor or sublimation pressure” value (292.1 K) was 814.2 ± 20 kPa and the “vapor or sublimation pressure” value (296.21 K) was 906.2 ± 20 kPa. The “vapor or sublimation pressure” value (300.18 K) was 1001.8 ± 20 kPa, the “vapor or sublimation pressure” value (304.19 K) was 1107.5 ± 20 kPa and the “vapor or sublimation pressure” value (308.18 K) was 1219.8 ± 20 kPa. For the same molecule, the “vapor or sublimation pressure” value (312.17 K) was 1339.6 ± 20 kPa, the “vapor or sublimation pressure” value (316.2 K) was 1468.9 ± 20 kPa and the “vapor or sublimation pressure” value (320.19 K) was 1606.7 ± 20 kPa.
In the case of `FCC(F)(F)F` [1,1,1,2-tetrafluoroethane], the “vapor or sublimation pressure” value (252.12 K) is reported as 127.2 ± 20 kPa, the “vapor or sublimation pressure” value (256.18 K) is reported as 151.4 ± 20 kPa and the “vapor or sublimation pressure” value (260.19 K) is reported as 178.5 ± 20 kPa. The “vapor or sublimation pressure” value (264.2 K) was 209.6 ± 20 kPa, the “vapor or sublimation pressure” value (268.21 K) was 244.3 ± 20 kPa and the “vapor or sublimation pressure” value (272.14 K) was 283 ± 20 kPa. The “vapor or sublimation pressure” value (276.09 K) was 326.1 ± 20 kPa, the “vapor or sublimation pressure” value (280.13 K) was 374.9 ± 20 kPa and the “vapor or sublimation pressure” value (284.1 K) was 428.7 ± 20 kPa. The “vapor or sublimation pressure” value (288.09 K) was 487 ± 20 kPa, the “vapor or sublimation pressure” value (292.13 K) was 554.1 ± 20 kPa and the “vapor or sublimation pressure” value (296.32 K) was 630.3 ± 20 kPa. For the same molecule, the “vapor or sublimation pressure” value (300.17 K) was 707.1 ± 20 kPa, the “vapor or sublimation pressure” value (304.12 K) was 792.4 ± 20 kPa and the “vapor or sublimation pressure” value (308.12 K) was 887 ± 20 kPa. The “vapor or sublimation pressure” value (312.19 K) was 991.8 ± 20 kPa, the “vapor or sublimation pressure” value (316.2 K) was 1103.5 ± 20 kPa and the “vapor or sublimation pressure” value (320.09 K) was 1220.6 ± 20 kPa.
